Measurements: ChEMBL document CHEMBL4842350, “Discovery of a Novel Bromodomain and Extra Terminal Domain (BET) Protein Inhibitor, I-BET282E, Suitable for Clinical Progression” (J Med Chem, 2021)
≈ marks a conversion by molar mass, not a printed value.

What was measured:
[1] = target: T1, Bromodomain-containing protein 4 (Homo sapiens, UniProt O60885); experiment: Inhibition of BRD4 in human whole blood assessed as reduction in LPS-induced IL-6 secretion preincubated for 30 mins followed by LPS stimulation and measured after 24 hrs by MSD assay; assay type: tissue-based
[2] = target: Bromodomain-containing protein 4 (Homo sapiens, UniProt O60885, Y390A); experiment: Displacement of Alexa Fluor 647 labelled ligand from recombinant human N-terminal 6His-tagged BRD4-BD1 Y390A mutant (1 to 477 residue) expressed in Escherichia coli incubated for 30 mins by TR-FRET assay
[3] = target: T1, Bromodomain-containing protein 4; experiment: Inhibition of BRD4 in human PBMC assessed as reduction in LPS-induced IL-6 secretion incubated for 18 to 24 hrs by MSD assay
[4] = rat, hepatocytes, 2 h, 0.5 µM
[5] = dog, hepatocytes, 2 h, 0.5 µM
[6] = physchem; conditions: FaSSIF, pH 6.5
Description: Solubility of the compound in FaSSIF at pH 6.5 measured after 30 mins by HPLC analysis

[7] = human, hepatocytes, 2 h, 0.5 µM
[8] = target: Cytochrome P450 2C9 (Homo sapiens, UniProt P11712)
Description: Inhibition of recombinant human CYP2C9 expressed in Escherichia coli using FCA as substrate incubated for 15 to 60 mins by fluorometric assay

[9] = target: Cytochrome P450 3A4 (Homo sapiens, UniProt P08684); experiment: Inhibition of recombinant human CYP3A4 expressed in Escherichia coli using VG as probe substrate incubated for 15 to 60 mins by fluorometric assay; assay type: ADME
Cytochrome P450 3A4, sequence (P08684 whole entry): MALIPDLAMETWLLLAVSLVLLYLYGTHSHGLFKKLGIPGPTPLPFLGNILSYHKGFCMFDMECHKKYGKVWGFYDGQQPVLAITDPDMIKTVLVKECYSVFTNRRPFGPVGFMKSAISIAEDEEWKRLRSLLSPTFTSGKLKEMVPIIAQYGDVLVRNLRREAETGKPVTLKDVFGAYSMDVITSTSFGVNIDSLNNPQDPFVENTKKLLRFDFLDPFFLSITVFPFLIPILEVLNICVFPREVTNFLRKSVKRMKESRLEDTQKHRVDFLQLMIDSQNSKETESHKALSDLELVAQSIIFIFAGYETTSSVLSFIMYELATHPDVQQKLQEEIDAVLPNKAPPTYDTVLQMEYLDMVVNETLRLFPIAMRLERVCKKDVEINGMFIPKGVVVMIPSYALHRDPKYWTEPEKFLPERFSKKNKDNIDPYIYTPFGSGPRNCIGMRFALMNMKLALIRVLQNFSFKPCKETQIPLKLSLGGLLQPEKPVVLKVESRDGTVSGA

Cytochrome P450 2C9, sequence (P11712 whole entry): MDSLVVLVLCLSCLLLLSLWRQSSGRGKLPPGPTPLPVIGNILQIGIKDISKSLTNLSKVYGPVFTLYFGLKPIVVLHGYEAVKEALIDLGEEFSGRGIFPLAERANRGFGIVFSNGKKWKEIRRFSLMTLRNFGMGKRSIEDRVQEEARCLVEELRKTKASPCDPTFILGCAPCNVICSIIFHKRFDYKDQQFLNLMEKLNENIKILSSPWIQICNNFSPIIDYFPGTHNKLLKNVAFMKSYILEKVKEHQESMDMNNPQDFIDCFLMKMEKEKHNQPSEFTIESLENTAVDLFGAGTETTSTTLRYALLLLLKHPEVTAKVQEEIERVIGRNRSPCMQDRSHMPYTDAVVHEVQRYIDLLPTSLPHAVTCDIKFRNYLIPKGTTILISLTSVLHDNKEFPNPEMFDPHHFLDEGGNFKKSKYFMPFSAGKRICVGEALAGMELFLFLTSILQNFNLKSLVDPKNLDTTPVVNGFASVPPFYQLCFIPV

COC[C@H](C)n1c(C2CCOCC2)nc2cnc3cc(-c4c(C)noc4C)c(OC)cc3c21
IC50 [1]: 316 nM
IC50 [2]: 158 nM
IC50 [3]: 501 nM

COCC(C)n1c(C2CCOCC2)nc2cnc3cc(-c4c(C)noc4C)c(OC)cc3c21 (racemic)
IC50 [1]: 398 nM
IC50 [2]: 100 nM
IC50 [3]: 126 nM

COc1cc2c(cc1-c1c(C)noc1C)ncc1[nH]c(=O)n(CC3CC3)c12
IC50 [2]: 631 nM
IC50 [3]: 398 nM

COc1cc2c(cc1-c1c(C)noc1C)ncc1[nH]c(=O)n(CC3CCCOC3)c12 (racemic)
IC50 [2]: 251 nM
IC50 [3]: 1260 nM

COc1cc2c(cc1-c1c(C)noc1C)ncc1[nH]c(=O)n(Cc3ccccn3)c12
IC50 [2]: 158 nM
IC50 [3]: 501 nM

COc1cc2c(cc1-c1c(C)noc1C)ncc1[nH]c(=O)n(CC3CCOCC3)c12
IC50 [2]: 100 nM
IC50 [3]: 200 nM

COCc1nc2cnc3cc(-c4c(C)noc4C)c(OC)cc3c2n1C(C)COC (racemic)
IC50 [2]: 200 nM
IC50 [3]: 631 nM

COc1cc2c(cc1-c1c(C)noc1C)ncc1[nH]c(=O)n(C3CCOCC3)c12
IC50 [2]: 1580 nM
IC50 [3]: 1580 nM

COc1cc2c(cc1-c1c(C)noc1C)ncc1[nH]c(=O)n(C3CCNCC3)c12
IC50 [2]: 2000 nM
IC50 [3]: 15800 nM

COc1cc2c(cc1-c1c(C)noc1C)ncc1nc(N)n(Cc3ccccn3)c12
IC50 [2]: 39.8 nM
IC50 [3]: 158 nM

COc1cc2c(cc1-c1c(C)noc1C)ncc1nc(C)n(Cc3ccccn3)c12
IC50 [2]: 39.8 nM
IC50 [3]: 39.8 nM

COc1cc2c(cc1-c1c(C)noc1C)ncc1nc(C3CCOCC3)n(Cc3ccccn3)c12
IC50 [2]: 63.1 nM
IC50 [3]: 251 nM

COc1cc2c(cc1-c1c(C)noc1C)ncc1[nH]c(=O)n([C@H](C)c3ccccn3)c12
CLint [4]: < 0.86 mL/min/g liver
CLint [5]: 9.8 mL/min/g liver
solubility at 0.5 h [6]: 66 µg/mL (≈ 159 µM)
CLint [7]: < 0.86 mL/min/g liver

COc1cc2c(cc1-c1c(C)noc1C)ncc1nc(C3CCOCC3)n(CC3CC3)c12
IC50 [1]: 2000 nM
IC50 [2]: 126 nM
IC50 [3]: 316 nM

COc1cc2c(cc1-c1c(C)noc1C)ncc1nc(N3CCOCC3)n(CC3CCOCC3)c12
IC50 [1]: 251 nM
IC50 [2]: 39.8 nM
IC50 [3]: 25.1 nM

CCNC(=O)C[C@@H]1N=C(c2ccc(Cl)cc2)c2cc(OC)ccc2-n2c(C)nnc21 [MOLIBRESIB]
CLint [4]: < 0.86 mL/min/g liver
CLint [5]: < 1.7 mL/min/g liver
CLint [7]: < 0.86 mL/min/g liver

COc1cc2c(cc1-c1c(C)noc1C)ncc1nc(C3CCOCC3)n(C(C)C3CCOCC3)c12 (stereo not drawn)
IC50 [1]: 200 nM
IC50 [2]: 31.6 nM
IC50 [3]: 100 nM

COCCNc1nc2cnc3cc(-c4c(C)noc4C)c(OC)cc3c2n1[C@H](C)c1ccccn1
IC50 [1]: 158 nM
IC50 [2]: 12.6 nM
IC50 [3]: 25.1 nM
IC50 [8]: 7900 nM
IC50 [9]: 7900 nM

COc1cc2c(cc1-c1c(C)noc1C)ncc1[nH]c(=O)n(CC3CCOC3)c12 (racemic)
IC50 [2]: 631 nM
IC50 [3]: 3980 nM

COc1cc2c(cc1-c1c(C)noc1C)ncc1[nH]c(=O)n(CC3CCN(C)CC3)c12
IC50 [2]: 1260 nM
IC50 [3]: 3160 nM

COCc1nc2cnc3cc(-c4c(C)noc4C)c(OC)cc3c2n1CC1CCOCC1
IC50 [2]: 79.4 nM
IC50 [3]: 398 nM

COc1cc2c(cc1-c1c(C)noc1C)ncc1nc(N(C)C)n(CC3CCOCC3)c12
IC50 [1]: 251 nM
IC50 [2]: 31.6 nM
IC50 [3]: 39.8 nM
IC50 [8]: 1300 nM
IC50 [9]: 10000 nM

COCc1nc2cnc3cc(-c4c(C)noc4C)c(OC)cc3c2n1Cc1ccccn1
IC50 [2]: 63.1 nM
IC50 [3]: 398 nM

COc1cc2c(cc1-c1c(C)noc1C)ncc1[nH]c(=O)n(CC(C)C)c12
IC50 [2]: 794 nM
IC50 [3]: 1000 nM

COc1cc2c(cc1-c1c(C)noc1C)ncc1[nH]c(=O)n(CCN(C)C)c12
IC50 [2]: 794 nM
IC50 [3]: 1580 nM

CCc1nc2cnc3cc(-c4c(C)noc4C)c(OC)cc3c2n1Cc1ccccn1
IC50 [2]: 31.6 nM
IC50 [3]: 158 nM

CCCc1nc2cnc3cc(-c4c(C)noc4C)c(OC)cc3c2n1Cc1ccccn1
IC50 [2]: 25.1 nM
IC50 [3]: 126 nM

COc1cc2c(cc1-c1c(C)noc1C)ncc1[nH]c(=O)n(C(C)C3CCOCC3)c12 (racemic)
IC50 [2]: 158 nM
IC50 [3]: 200 nM

CCCC(C)n1c(=O)[nH]c2cnc3cc(-c4c(C)noc4C)c(OC)cc3c21 (stereo not drawn)
IC50 [2]: 126 nM
IC50 [3]: 126 nM

COCCNc1nc2cnc3cc(-c4c(C)noc4C)c(OC)cc3c2n1Cc1ccccn1
IC50 [1]: 398 nM
IC50 [2]: 31.6 nM
IC50 [3]: 100 nM
IC50 [8]: 31600 nM
IC50 [9]: 15800 nM

COc1cc2c(cc1-c1c(C)noc1C)ncc1nc(C(C)C)n(Cc3ccccn3)c12
IC50 [2]: 39.8 nM
IC50 [3]: 158 nM

COc1cc2c(cc1-c1c(C)noc1C)ncc1[nH]c(=O)n(C(C)C)c12
IC50 [2]: 1260 nM
IC50 [3]: 3160 nM

COCC(C)n1c(=O)[nH]c2cnc3cc(-c4c(C)noc4C)c(OC)cc3c21 (racemic)
IC50 [2]: 631 nM
IC50 [3]: 1580 nM
